# Results reported in patent US11697648B2, “Fused pyrimidine pyridinone compounds as JAK inhibitors” (THERAVANCE BIOPHARMA R&D IP, LLC, priority 2019, dated 2023).
# Tests used:
# [1] = system: IL-2 stimulated STAT5 phosphorylation in Tall-1 human T cell line (JAK3); experiment: Cellular JAK3 potency assay: inhibition of IL-2 stimulated pSTAT5 in Tall-1 T cells; format: cell-based
# Outline: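 AlphaLISA SureFire Ultra measures STAT5 Tyr694/699 phosphorylation in lysed Tall-1 human T cells. Cells were exposed to compound for 1 h at 37 °C before a 30 min IL-2 challenge (300 ng/ml final). Values are pIC50 means with standard deviation from signal-versus-concentration curves.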
# [2] = molecular target: Tyk2 (Homo sapiens (Human), UniProt P29597); experiment: Biochemical Tyk2 kinase assay (LanthaScreen)
# Sequence of Tyk2 (P29597 whole entry): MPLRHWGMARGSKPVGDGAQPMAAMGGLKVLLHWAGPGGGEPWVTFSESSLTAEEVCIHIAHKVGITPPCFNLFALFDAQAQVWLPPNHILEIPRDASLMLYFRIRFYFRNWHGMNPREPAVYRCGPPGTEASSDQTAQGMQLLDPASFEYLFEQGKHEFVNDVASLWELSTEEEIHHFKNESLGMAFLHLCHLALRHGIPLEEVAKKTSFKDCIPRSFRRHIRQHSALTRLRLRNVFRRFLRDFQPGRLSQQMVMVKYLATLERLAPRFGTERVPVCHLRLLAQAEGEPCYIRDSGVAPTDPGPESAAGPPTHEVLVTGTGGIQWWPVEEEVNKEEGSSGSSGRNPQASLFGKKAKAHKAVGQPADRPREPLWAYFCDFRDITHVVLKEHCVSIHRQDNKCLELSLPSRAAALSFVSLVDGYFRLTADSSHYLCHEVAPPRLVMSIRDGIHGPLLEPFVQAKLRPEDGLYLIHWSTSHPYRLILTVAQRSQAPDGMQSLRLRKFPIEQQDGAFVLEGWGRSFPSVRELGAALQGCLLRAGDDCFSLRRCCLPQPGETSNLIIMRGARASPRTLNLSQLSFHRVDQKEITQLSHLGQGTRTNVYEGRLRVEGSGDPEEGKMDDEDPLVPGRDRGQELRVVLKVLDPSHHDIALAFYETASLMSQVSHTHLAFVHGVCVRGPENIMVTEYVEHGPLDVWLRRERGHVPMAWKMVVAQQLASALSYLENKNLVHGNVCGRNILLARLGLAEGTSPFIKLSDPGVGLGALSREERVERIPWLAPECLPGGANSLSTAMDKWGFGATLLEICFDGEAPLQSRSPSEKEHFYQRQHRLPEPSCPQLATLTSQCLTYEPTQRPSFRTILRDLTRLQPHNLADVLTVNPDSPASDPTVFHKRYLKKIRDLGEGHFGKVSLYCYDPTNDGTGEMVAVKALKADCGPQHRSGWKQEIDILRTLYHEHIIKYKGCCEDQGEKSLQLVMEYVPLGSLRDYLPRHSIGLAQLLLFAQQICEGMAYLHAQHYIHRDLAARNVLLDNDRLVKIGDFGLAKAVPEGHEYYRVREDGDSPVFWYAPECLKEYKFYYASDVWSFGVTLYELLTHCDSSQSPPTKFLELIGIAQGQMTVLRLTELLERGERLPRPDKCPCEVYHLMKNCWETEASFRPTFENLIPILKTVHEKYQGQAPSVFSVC
# Outline: (§1)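 GST-JAK + GFP-STAT1 peptide, HEPES pH 7.5/MgCl2/EGTA/Brij-35 buffer; cpd preincubation 1 h RT; ATP start, 1 h RT; stop with 10 mM EDTA + 2 nM Tb-anti-pSTAT1; TR-FRET 520/495. 4-parameter IC50 → pKi (Cheng-Prusoff).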
# [3] = molecular target: JAK2 (Homo sapiens (Human), UniProt O60674); experiment: Biochemical JAK2 kinase assay (LanthaScreen)
# Sequence of JAK2 (O60674 whole entry): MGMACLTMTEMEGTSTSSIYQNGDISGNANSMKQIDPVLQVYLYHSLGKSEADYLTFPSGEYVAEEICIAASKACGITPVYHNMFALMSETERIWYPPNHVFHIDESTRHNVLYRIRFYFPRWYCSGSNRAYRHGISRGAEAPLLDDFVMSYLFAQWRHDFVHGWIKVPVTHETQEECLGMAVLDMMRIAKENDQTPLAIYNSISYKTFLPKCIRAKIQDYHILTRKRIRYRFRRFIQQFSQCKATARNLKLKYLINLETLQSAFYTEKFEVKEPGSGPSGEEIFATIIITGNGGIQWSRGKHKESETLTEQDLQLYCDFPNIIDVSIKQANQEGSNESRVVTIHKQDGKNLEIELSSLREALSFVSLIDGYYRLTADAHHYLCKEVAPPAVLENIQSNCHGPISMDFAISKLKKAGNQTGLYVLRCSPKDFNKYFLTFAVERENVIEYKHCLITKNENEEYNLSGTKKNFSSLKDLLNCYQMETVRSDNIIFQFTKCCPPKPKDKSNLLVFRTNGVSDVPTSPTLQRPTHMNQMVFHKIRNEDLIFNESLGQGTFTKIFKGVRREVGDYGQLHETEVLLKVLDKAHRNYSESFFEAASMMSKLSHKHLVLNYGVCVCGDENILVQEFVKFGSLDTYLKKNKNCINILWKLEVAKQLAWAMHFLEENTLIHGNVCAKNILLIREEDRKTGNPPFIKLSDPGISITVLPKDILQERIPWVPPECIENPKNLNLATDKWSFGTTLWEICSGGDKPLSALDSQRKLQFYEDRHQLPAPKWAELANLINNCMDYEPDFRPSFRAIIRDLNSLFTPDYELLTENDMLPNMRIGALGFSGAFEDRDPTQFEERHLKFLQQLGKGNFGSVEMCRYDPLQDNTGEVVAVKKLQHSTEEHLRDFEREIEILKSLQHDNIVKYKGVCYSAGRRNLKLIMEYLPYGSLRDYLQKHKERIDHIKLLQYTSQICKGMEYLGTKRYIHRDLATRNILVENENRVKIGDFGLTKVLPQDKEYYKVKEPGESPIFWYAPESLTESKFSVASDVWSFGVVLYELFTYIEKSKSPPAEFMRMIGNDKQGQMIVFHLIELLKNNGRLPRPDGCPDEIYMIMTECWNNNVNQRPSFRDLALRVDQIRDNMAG
# Outline: as §1
# [4] = molecular target: JAK3 (Homo sapiens (Human), UniProt P52333); experiment: Biochemical JAK3 kinase assay (LanthaScreen)
# Sequence of JAK3 (P52333 whole entry): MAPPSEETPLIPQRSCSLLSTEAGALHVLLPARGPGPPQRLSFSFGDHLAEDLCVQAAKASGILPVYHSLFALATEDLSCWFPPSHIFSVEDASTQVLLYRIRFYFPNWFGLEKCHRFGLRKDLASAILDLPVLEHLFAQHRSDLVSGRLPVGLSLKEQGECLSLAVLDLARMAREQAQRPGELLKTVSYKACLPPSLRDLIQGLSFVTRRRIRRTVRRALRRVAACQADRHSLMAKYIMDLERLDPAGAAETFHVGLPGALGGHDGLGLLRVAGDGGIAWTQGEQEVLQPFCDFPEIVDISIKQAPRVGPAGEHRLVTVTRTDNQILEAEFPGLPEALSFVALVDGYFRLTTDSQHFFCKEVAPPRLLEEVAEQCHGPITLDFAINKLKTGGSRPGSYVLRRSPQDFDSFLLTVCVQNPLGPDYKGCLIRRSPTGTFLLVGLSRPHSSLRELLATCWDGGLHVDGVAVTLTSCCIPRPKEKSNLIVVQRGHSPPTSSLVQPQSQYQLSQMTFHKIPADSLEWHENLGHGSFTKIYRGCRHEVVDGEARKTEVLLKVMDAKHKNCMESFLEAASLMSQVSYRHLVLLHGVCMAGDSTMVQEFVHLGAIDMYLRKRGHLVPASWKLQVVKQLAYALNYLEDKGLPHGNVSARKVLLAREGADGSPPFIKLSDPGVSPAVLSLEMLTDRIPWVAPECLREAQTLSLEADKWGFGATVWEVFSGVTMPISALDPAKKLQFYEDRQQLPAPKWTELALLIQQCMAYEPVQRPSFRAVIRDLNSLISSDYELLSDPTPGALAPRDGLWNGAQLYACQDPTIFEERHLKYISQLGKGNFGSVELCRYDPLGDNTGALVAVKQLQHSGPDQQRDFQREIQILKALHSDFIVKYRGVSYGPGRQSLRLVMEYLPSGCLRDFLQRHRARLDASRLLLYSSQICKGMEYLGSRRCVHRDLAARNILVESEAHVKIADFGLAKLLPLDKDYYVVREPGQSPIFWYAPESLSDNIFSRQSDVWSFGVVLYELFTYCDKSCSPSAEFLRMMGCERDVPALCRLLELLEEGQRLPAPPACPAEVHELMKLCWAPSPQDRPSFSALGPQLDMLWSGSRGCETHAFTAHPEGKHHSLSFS
# Outline: as §1
# [5] = molecular target: JAK1 (Homo sapiens (Human), UniProt P23458); experiment: Biochemical JAK1 kinase assay (LanthaScreen)
# Sequence of JAK1 (P23458 whole entry): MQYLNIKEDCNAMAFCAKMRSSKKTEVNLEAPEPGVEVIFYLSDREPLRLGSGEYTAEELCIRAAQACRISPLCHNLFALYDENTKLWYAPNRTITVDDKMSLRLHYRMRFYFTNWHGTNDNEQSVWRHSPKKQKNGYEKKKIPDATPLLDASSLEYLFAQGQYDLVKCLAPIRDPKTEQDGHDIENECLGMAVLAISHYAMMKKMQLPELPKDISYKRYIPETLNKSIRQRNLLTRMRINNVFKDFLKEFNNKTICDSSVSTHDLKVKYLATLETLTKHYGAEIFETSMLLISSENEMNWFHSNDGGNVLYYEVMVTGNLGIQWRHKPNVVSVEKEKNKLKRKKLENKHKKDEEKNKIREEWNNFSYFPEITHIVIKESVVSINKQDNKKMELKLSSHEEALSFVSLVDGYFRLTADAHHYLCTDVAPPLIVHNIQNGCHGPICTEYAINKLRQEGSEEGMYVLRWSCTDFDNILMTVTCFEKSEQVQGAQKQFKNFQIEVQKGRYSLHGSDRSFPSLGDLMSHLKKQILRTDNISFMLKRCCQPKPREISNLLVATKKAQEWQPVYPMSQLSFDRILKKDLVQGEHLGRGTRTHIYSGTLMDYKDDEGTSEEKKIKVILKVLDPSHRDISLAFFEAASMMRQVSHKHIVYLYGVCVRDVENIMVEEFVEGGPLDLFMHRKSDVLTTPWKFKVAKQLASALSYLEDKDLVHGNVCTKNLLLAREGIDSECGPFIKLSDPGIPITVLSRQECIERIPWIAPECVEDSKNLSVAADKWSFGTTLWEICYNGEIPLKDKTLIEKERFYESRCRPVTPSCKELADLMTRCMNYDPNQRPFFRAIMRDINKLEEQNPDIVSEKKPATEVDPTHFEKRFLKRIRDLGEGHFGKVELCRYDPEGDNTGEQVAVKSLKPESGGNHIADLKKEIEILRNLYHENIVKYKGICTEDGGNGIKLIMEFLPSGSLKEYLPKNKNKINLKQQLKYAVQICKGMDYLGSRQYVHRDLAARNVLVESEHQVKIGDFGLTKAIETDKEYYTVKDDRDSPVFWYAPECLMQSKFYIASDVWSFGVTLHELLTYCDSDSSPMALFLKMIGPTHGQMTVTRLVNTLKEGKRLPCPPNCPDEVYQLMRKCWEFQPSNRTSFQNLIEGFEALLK
# Outline: as §1
# [6] = IL-2 stimulated pSTAT5 in Tall-1 T cells
# [7] = selectivity, difference of pKi values
Compound,"Tall-1 (pIC50) ([1]; IL-2 stimulated pSTAT5, Tall-1 T cells)",Tyk 2 (pKi) [2],JAK 2 (pKi) [3],JAK 3 (pKi) [4],"JAK3 (pKi)-JAK1 (pKi) ([4]; selectivity JAK3 over JAK1, difference of pKi)",JAK 1 (pKi) [5],"Tall-1 (pIC50) [1, 6]","JAK3 (pKi)-JAK1 (pKi) [4, 7]"
C=CC(=O)N1CCN(CCn2c(=O)ccc3cnc(Nc4cnn(CCF)c4)nc32)[C@@H](C)C1 [Example 236],B (B represents a pC50 value between 6.7 (included) and 7.5 (IC50 between 200 nM and 32 nM)),E (E represents a pKi value of 7 or below (Ki of 100 nM or above)),E (E represents a pKi value of 7 or below (Ki of 100 nM or above)),B (B represents pKi value between 9 and 10 (Ki between 1 nM and 0.1 nM)),A (A represents a value of 3 or above),E (E represents a pKi value of 7 or below (Ki of 100 nM or above)),–,–
C=CC(=O)N1CCN(CCn2c(=O)ccc3cnc(Nc4cnn(Cc5ccccc5)c4)nc32)[C@@H](C)C1 [Example 237],–,E (E represents a pKi value of 7 or below (Ki of 100 nM or above)),E (E represents a pKi value of 7 or below (Ki of 100 nM or above)),B (B represents pKi value between 9 and 10 (Ki between 1 nM and 0.1 nM)),–,E (E represents a pKi value of 7 or below (Ki of 100 nM or above)),B (B represents a pC50 value between 6.7 (included) and 7.5 (IC50 between 200 nM and 32 nM)),A (A represents a value of 3 or above)
C=CC(=O)N1CCN(CCn2c(=O)ccc3cnc(Nc4cnn(CCOC(F)F)c4)nc32)[C@@H](C)C1 [Example 238],–,E (E represents a pKi value of 7 or below (Ki of 100 nM or above)),E (E represents a pKi value of 7 or below (Ki of 100 nM or above)),B (B represents pKi value between 9 and 10 (Ki between 1 nM and 0.1 nM)),–,E (E represents a pKi value of 7 or below (Ki of 100 nM or above)),C (C represents a pIC50 value between 6 and 6.7 (IC50 between 1 μM and 200 nM)),A (A represents a value of 3 or above)
C=CC(=O)N1CC(CCn2c(=O)ccc3cnc(Nc4cnn(Cc5ccccc5)c4)nc32)C1 [Example 239],–,E (E represents a pKi value of 7 or below (Ki of 100 nM or above)),E (E represents a pKi value of 7 or below (Ki of 100 nM or above)),B (B represents pKi value between 9 and 10 (Ki between 1 nM and 0.1 nM)),–,E (E represents a pKi value of 7 or below (Ki of 100 nM or above)),B (B represents a pC50 value between 6.7 (included) and 7.5 (IC50 between 200 nM and 32 nM)),A (A represents a value of 3 or above)
C=CC(=O)N1CC(CCn2c(=O)ccc3cnc(Nc4ccc(N5CCN(C)C(C)(C)C5)cc4)nc32)C1 [Example 240],–,E (E represents a pKi value of 7 or below (Ki of 100 nM or above)),E (E represents a pKi value of 7 or below (Ki of 100 nM or above)),A (A represents a pKi value≥10 (Ki≤0.1 nM)),–,E (E represents a pKi value of 7 or below (Ki of 100 nM or above)),A (A represents a pIC50 value≥7.5 (IC50≤32 nM)),A (A represents a value of 3 or above)
C=CC(=O)N1CC(CCn2c(=O)ccc3cnc(Nc4cnn(CC)c4)nc32)C1 [Example 241],–,E (E represents a pKi value of 7 or below (Ki of 100 nM or above)),E (E represents a pKi value of 7 or below (Ki of 100 nM or above)),B (B represents pKi value between 9 and 10 (Ki between 1 nM and 0.1 nM)),–,E (E represents a pKi value of 7 or below (Ki of 100 nM or above)),B (B represents a pC50 value between 6.7 (included) and 7.5 (IC50 between 200 nM and 32 nM)),A (A represents a value of 3 or above)
C=CC(=O)N1CCN(CCn2c(=O)ccc3cnc(Nc4cnn(CC)c4)nc32)[C@@H](CC)C1 [Example 242],–,E (E represents a pKi value of 7 or below (Ki of 100 nM or above)),E (E represents a pKi value of 7 or below (Ki of 100 nM or above)),B (B represents pKi value between 9 and 10 (Ki between 1 nM and 0.1 nM)),–,E (E represents a pKi value of 7 or below (Ki of 100 nM or above)),B (B represents a pC50 value between 6.7 (included) and 7.5 (IC50 between 200 nM and 32 nM)),A (A represents a value of 3 or above)
C=CC(=O)N1CCN(CCn2c(=O)ccc3cnc(Nc4cnn(CC)c4)nc32)[C@@H](C)C1 [Example 243],–,E (E represents a pKi value of 7 or below (Ki of 100 nM or above)),E (E represents a pKi value of 7 or below (Ki of 100 nM or above)),B (B represents pKi value between 9 and 10 (Ki between 1 nM and 0.1 nM)),–,E (E represents a pKi value of 7 or below (Ki of 100 nM or above)),B (B represents a pC50 value between 6.7 (included) and 7.5 (IC50 between 200 nM and 32 nM)),A (A represents a value of 3 or above)
C=CC(=O)N1CCN(CCn2c(=O)ccc3cnc(Nc4cnn(CCN5CCOCC5)c4)nc32)[C@@H](CC)C1 [Example 244],–,E (E represents a pKi value of 7 or below (Ki of 100 nM or above)),E (E represents a pKi value of 7 or below (Ki of 100 nM or above)),B (B represents pKi value between 9 and 10 (Ki between 1 nM and 0.1 nM)),–,E (E represents a pKi value of 7 or below (Ki of 100 nM or above)),B (B represents a pC50 value between 6.7 (included) and 7.5 (IC50 between 200 nM and 32 nM)),A (A represents a value of 3 or above)
C=CC(=O)N1CCN(CCn2c(=O)ccc3cnc(Nc4cnn(CCN5CCOCC5)c4)nc32)[C@@H](C)C1 [Example 245],–,E (E represents a pKi value of 7 or below (Ki of 100 nM or above)),E (E represents a pKi value of 7 or below (Ki of 100 nM or above)),B (B represents pKi value between 9 and 10 (Ki between 1 nM and 0.1 nM)),–,E (E represents a pKi value of 7 or below (Ki of 100 nM or above)),B (B represents a pC50 value between 6.7 (included) and 7.5 (IC50 between 200 nM and 32 nM)),A (A represents a value of 3 or above)
C=CC(=O)N1CC(C(C)(C)Cn2c(=O)ccc3cnc(Nc4ccc(N5CCN(C)CC5)cc4)nc32)C1 [Example 246],–,E (E represents a pKi value of 7 or below (Ki of 100 nM or above)),E (E represents a pKi value of 7 or below (Ki of 100 nM or above)),B (B represents pKi value between 9 and 10 (Ki between 1 nM and 0.1 nM)),–,E (E represents a pKi value of 7 or below (Ki of 100 nM or above)),B (B represents a pC50 value between 6.7 (included) and 7.5 (IC50 between 200 nM and 32 nM)),A (A represents a value of 3 or above)
C=CC(=O)N1CC(CCn2c(=O)ccc3cnc(Nc4ccc(N5C[C@@H](C)N(C)[C@@H](C)C5)cc4)nc32)C1 [Example 247],–,E (E represents a pKi value of 7 or below (Ki of 100 nM or above)),E (E represents a pKi value of 7 or below (Ki of 100 nM or above)),B (B represents pKi value between 9 and 10 (Ki between 1 nM and 0.1 nM)),–,E (E represents a pKi value of 7 or below (Ki of 100 nM or above)),A (A represents a pIC50 value≥7.5 (IC50≤32 nM)),A (A represents a value of 3 or above)
C=CC(=O)N1CCN(CCn2c(=O)ccc3cnc(Nc4ccc(N5C[C@@H](C)N(C)[C@@H](C)C5)cc4)nc32)CC1 [Example 248],–,E (E represents a pKi value of 7 or below (Ki of 100 nM or above)),E (E represents a pKi value of 7 or below (Ki of 100 nM or above)),B (B represents pKi value between 9 and 10 (Ki between 1 nM and 0.1 nM)),–,E (E represents a pKi value of 7 or below (Ki of 100 nM or above)),A (A represents a pIC50 value≥7.5 (IC50≤32 nM)),A (A represents a value of 3 or above)
